Source: patent publication US4588822A, “Physiologically active substances SS 12538, their preparation and a novel microorganism producing same” (SS Pharmaceutical Co., Ltd., priority 1982, dated 1986)
In brackets after ≈: the same amount, converted by molar mass.

Assays:
[1] = system: mongrel dogs; test: Vasodilating activity in anesthetized mongrel dogs (coronary blood flow, blood pressure, heart rate after dosing into the vein); type: in vivo, dog (mongrel); conditions: for Blood Pressure Duration / Blood Pressure Reduction / Coronary Blood Flow Duration / Coronary Blood Flow Increase / Heart Rate Reduction: i.v., dog
Procedure: 4 male mongrel dogs, weighing 15-25 Kg, were provided as laboratory animals and were anesthesized with sodium pentobarbital (30 mg/kg i.v.). Thereafter, the left circumflex coronary artery was exposed under artificial respiration and a probe of an electromagnetic flow meter was attached. A polyethylene cannula was inserted into the left femoral artery.
Test compounds were dissolved in a small amount of dimethyl sulfoxide and diluted with a sterilized physiological saline for injection, followed by dosing it into the vein.
Coronary blood was measured by means of the electromagnetic flow meter and the blood pressure was determined from the polyethylene cannule through a pressure transducer. Also, heart rate was measured by an instantaneous pulse meter from RR intervals of an electrocardiogram. Each parameter was recorded on a polygraph. Changes of these parameters prior to and after administration of each compound were observed.
In accordance with the procedure as used with SS 12538A, the vasodilating activity of SS 12538B was determined.
In the same manner as in the case of SS 12538A, the vasodilating activity of SS 12538C was determined with the results shown in Table 5.

[2] = system: Microsporum gypseum IFO 8231; test: Antifungal activity (MIC), Microsporum gypseum IFO 8231; type: cell-based; conditions: Nannizzia gypsea, IFO8231; Microsporum gypseum IFO 8231; read-out: Minimum Inhibitory Concentration MIC
Source text: (§1) Minimum inhibitory concentration (MIC) of the physiologically active substance SS 12538A against various microorganisms are shown in FIG. 2.
(§2) Minimum inhibitory concentration (MIC) of the physiologically active substance SS 12538B against various microorganisms are shown in Table 4 below.
(§3) Minimum inhibitory concentration (MIC) of the physiologically active substance SS 12538C against various microorganisms are shown in Table 6 below.

[3] = system: Aspergillus niger ATCC 9642; test: Antifungal activity (MIC), Aspergillus niger ATCC 9642; type: cell-based; conditions: ATCC9642; Aspergillus niger ATCC 9642; read-out: Minimum Inhibitory Concentration MIC
Source text: as §1, §2, §3

[4] = system: Candida albicans ATCC 10231; test: Antifungal activity (MIC), Candida albicans ATCC 10231; type: cell-based; conditions: ATCC10231; Candida albicans ATCC 10231; read-out: Minimum Inhibitory Concentration MIC
Source text: as §1, §2, §3

[5] = system: Staphylococcus aureus ATCC 6538P; test: Antibacterial activity (MIC), Staphylococcus aureus ATCC 6538P; type: cell-based; conditions: ATCC6538P; Staphylococcus aureus ATCC 6538P; read-out: Minimum Inhibitory Concentration MIC
Source text: as §1, §2, §3

[6] = system: Micrococcus lysodeikticus IFO 3333; test: Antibacterial activity (MIC), Micrococcus lysodeikticus IFO 3333; type: cell-based; conditions: Micrococcus luteus, IFO3333; Micrococcus lysodeikticus IFO 3333; read-out: Minimum Inhibitory Concentration MIC
Source text: as §1, §2, §3

[7] = system: Escherichia coli 0-1; test: Antibacterial activity (MIC), Escherichia coli 0-1; type: cell-based; conditions: 01; Escherichia coli 0-1; read-out: Minimum Inhibitory Concentration MIC
Source text: as §1, §2, §3

[8] = system: Klebsiella pneumoniae ATCC 10031; test: Antibacterial activity (MIC), Klebsiella pneumoniae ATCC 10031; type: cell-based; conditions: ATCC10031; Klebsiella pneumoniae ATCC 10031; read-out: Minimum Inhibitory Concentration MIC
Source text: as §1, §2, §3

[9] = system: Staphylococcus epidermidis ATCC 12228; test: Antibacterial activity (MIC), Staphylococcus epidermidis ATCC 12228; type: cell-based; conditions: ATCC12228; Staphylococcus epidermidis ATCC 12228; read-out: Minimum Inhibitory Concentration MIC
Source text: as §1, §2, §3

[10] = system: Bacillus subtilis ATCC 6633; test: Antibacterial activity (MIC), Bacillus subtilis ATCC 6633; type: cell-based; conditions: ATCC6633; Bacillus subtilis ATCC 6633; read-out: Minimum Inhibitory Concentration MIC
Source text: as §1, §2, §3

[11] = system: Saccharomyces cerevisiae ATCC 9763; test: Antifungal activity (MIC), Saccharomyces cerevisiae ATCC 9763; type: cell-based; conditions: ATCC9763; Saccharomyces cerevisiae ATCC 9763; read-out: Minimum Inhibitory Concentration MIC
Source text: as §1, §2, §3

[12] = Solubilities in solvents; type: physicochemical
[13] = system: Bacillus cereus IID 871; test: Antibacterial activity (MIC), Bacillus cereus IID 871; type: cell-based; conditions: IID871; Bacillus cereus IID 871; read-out: Minimum Inhibitory Concentration MIC
Source text: as §1, §2, §3

[14] = system: Trichophyton mentagrophytes QM 248; test: Antifungal activity (MIC), Trichophyton mentagrophytes QM 248; type: cell-based; conditions: QM248; Trichophyton mentagrophytes QM 248; read-out: Minimum Inhibitory Concentration MIC
Source text: as §1, §2, §3

[15] = system: Pseudomonas aeruginosa IFO 13736; test: Antibacterial activity (MIC), Pseudomonas aeruginosa IFO 13736; type: cell-based; conditions: IFO13736; Pseudomonas aeruginosa IFO 13736; read-out: Minimum Inhibitory Concentration MIC
Source text: as §1, §2, §3

In the case of `OCCN(CCO)c1nc(N2CCCCC2)c2nc(N(CCO)CCO)nc(N3CCCCC3)c2n1` [Dipyridamol, dipyridamol, reference compound], the “Blood Pressure Duration” value ([1]; dose 300 μg/kg) is reported as 16 min, the “Blood Pressure Reduction” value ([1]; dose 300 μg/kg) is reported as 13.2% and the “Coronary Blood Flow Duration” value ([1]; dose 300 μg/kg) is reported as 20 min. The “Coronary Blood Flow Increase” value ([1]; dose 300 μg/kg) was 135.7% and the “Heart Rate Reduction” value ([1]; dose 300 μg/kg) was 0%.

Work on `CC=C(C)C(O)C(C)C=C(C)C=CCC(C)=CCc1oc(OC)c(C)c(=O)c1C` (stereo not drawn) [SS 12538A] yielded an MIC [2] of less than 6.25 µg/mL, an MIC [3] greater than 100 µg/mL and an MIC [4] greater than 100 µg/mL. It also gave an MIC [5] greater than 100 µg/mL, an MIC [6] of 25 µg/mL (≈ 62.4 µM) and an MIC [7] greater than 100 µg/mL. It also gave an MIC [8] greater than 100 µg/mL, an MIC [9] of less than 6.25 µg/mL and an MIC [10] greater than 100 µg/mL. The MIC [11] was greater than 100 µg/mL, the “Solubility in organic solvents” value ([12]; chloroform, ethyl acetate, acetone, ethyl ether, ethanol, methanol, pyridine, benzene and dimethyl sulfoxide) was “Soluble” and the Solubility in water ([12]; water) was “sparingly soluble”. The MIC [13] was 12.5 µg/mL (≈ 31.2 µM), the “titer relative to dipyridamol” value ([1]; compared with currently employed dipyridamol) was “about 30 times” and the “Blood Pressure Duration” value ([1]; dose 3 μg/kg) was 7 min. The “Blood Pressure Reduction” value ([1]; dose 3 μg/kg) was 4.9%, the “Coronary Blood Flow Duration” value ([1]; dose 3 μg/kg) was 10 min and the “Coronary Blood Flow Increase” value ([1]; dose 3 μg/kg) was 17.1%. For the same compound, the “Heart Rate Reduction” value ([1]; dose 3 μg/kg) was 2.3%, the “Blood Pressure Duration” value ([1]; dose 10 μg/kg) was 10 min and the “Blood Pressure Reduction” value ([1]; dose 10 μg/kg) was 12.6%. For the same compound, the “Coronary Blood Flow Duration” value ([1]; dose 10 μg/kg) was 20 min, the “Coronary Blood Flow Increase” value ([1]; dose 10 μg/kg) was 168.6% and the “Heart Rate Reduction” value ([1]; dose 10 μg/kg) was 2.9%. For the same compound, the “Blood Pressure Duration” value ([1]; dose 30 μg/kg) was 30 min, the “Blood Pressure Reduction” value ([1]; dose 30 μg/kg) was 28.7% and the “Coronary Blood Flow Duration” value ([1]; dose 30 μg/kg) was 40 min. The “Coronary Blood Flow Increase” value ([1]; dose 30 μg/kg) was 441.3%, the “Heart Rate Reduction” value ([1]; dose 30 μg/kg) was 1.8% and the MIC [14] was greater than 100 µg/mL. The MIC [15] was greater than 100 µg/mL.
